{"source": "patent US20030083227A1", "about": "“Novel combination therapy to treat glaucoma” (priority 1999, published 2003)", "key": {"mouse IOP [1]": {"test_system": "mouse IOP", "assay": "Mouse IOP measured with the Servo-Null Micropipette System (SNMS)", "format": "in vivo", "conditions": "for ΔIOP (after 1st drug): vs previous period; for effect on IOP: alone; for ΔIOP after base (1st drug): sequential study; for minimally effective droplet concentration: lowering of mouse IOP", "description": "Black Swiss outbred mice of mixed sex, 7 to 9 weeks old and approximately 30 g in weight, were obtained from Taconic, Inc. (Germantown, N.Y.). Animals were housed in accordance with National Institutes of Health recommendations, maintained under a 12-hour light-dark illumination cycle, and allowed unrestricted access to food and water. IOP measurements were performed at the same time of day (2-6 PM) to minimize diurnal effects on IOP. All procedures conformed to the ARVO Statement for the Use of Animals in Ophthalmic and Vision Research.\nBefore all IOP measurements, mice received general anesthesia in the form of intraperitoneal ketamine (250 mg/kg), supplemented by topical proparacaine HCl (0.5%; Allergan, Hormigueros, Puerto Rico). After reaching a stable plane of anesthesia confirmed by absent response to foot pinch, the mice were secured in a surgical stereotaxic device (David Kopf Instruments, Tujunga, Calif.), with the head positioned to avoid any pressure on the animal that could affect IOP. A heating pad at 37° C. (Delta Phase Isothermal Pad, Braintree Scientific, Braintree, Mass.) maintained body temperature. Topical proparacaine supplemented general anesthesia, and corneal dehydration was prevented by topical normal saline (309 mOsm), as necessary. The ground electrode was placed on the conjunctiva of the same or the contralateral eye, carefully avoiding any pressure on the eye.\nIOP was measured with the Servo-Null Micropipette System (SNMS), an electrophysiologic, nonmanometric method of measuring pressure, previously adapted and validated for measuring IOP in the mouse (Avila et al., 2001A). The exploring, 5-μm micropipette was filled with 3 M KCl solution to ensure that the resistance of the fluid within the tip was much lower than that of the extracellular fluid. The resistance to electrical flow through the micropipette was continuously monitored and was dominated by the electrical resistance at the tip.\nAfter entry of the tip into the anterior chamber, the step change in hydrostatic pressure forced aqueous humor into the micropipette, displacing the low-resistance 3-M KCl filling solution from the tip back toward the shank. The resultant increase in electrical resistance generated a signal to a vacuum-pressure pump that produced an equal counter-pressure that maintained the position of the aqueous humor-KCl interface at the tip of the micropipette, and thus sustains the original electrical resistance. This counter-pressure equaled the hydrostatic pressure outside the micropipette tip, in this instance the IOP. […] Before every measurement, the system was calibrated externally against a mercury manometer in the range from 0 to 50 mm Hg at 5- to 10-mm Hg intervals.\nThe micropipettes were fabricated from borosilicate glass (1.5 mm outer diameter, 0.84 mm inner diameter, WPI) with a puller (Sutter Instruments, San Rafael, Calif.). The tips were beveled to an outer diameter of 5 μm and a 45° angle with a micropipette beveler (Sutter).\nUsing the SNMS as described above, the micropipette tip was next placed in the drop of proparacaine on the cornea overlying the pupil of the subject, and the output reading from the SNMS was adjusted to zero. The micropipette was then advanced across the cornea (at 20-30° to the optical axis) into the anterior chamber by a cell-penetration positioning system (model LSS 21200; Burleigh Instruments, Inc., Fishers, N.Y.) and a piezoelectric step driver (model PZ100; Burleigh). IOP was monitored after positioning the micropipette tip in the aqueous humor. The baseline IOP in the present study was 14.2±0.4 mm Hg (n=113). In measuring drug-induced changes in IOP, each animal served as its own series control. All pressures after drug application were compared with those just before the drug was added.\nTo determine an individual IOP reading, the mean±SEM was calculated during a 3- to 5-minute recording period. Numbers of experiments or eyes are indicated by the symbol n. […]"}, "PE cells [2]": {"test_system": "PE cells", "assay": "Regulatory volume increase (post-RVD RVI) of PE cells, volumetric measurements", "format": "cell-based, bovine", "description": "Volumetric measurements were also performed to confirm that these antiports could function in parallel to transfer solution from the extracellular space into the cells.\nSince paired Na^+/H^+ and Cl^−/HCO3^− exchangers were known to contribute to the regulatory volume increase (RVI) in many other cells (Hoffmann, Curr Top Membr Transp 30:125-180 (1987)), the regulatory volume increase in the PE cells was examined. However, the secondary RVI was not observed in the PE cells at room temperature. Consequently, the volumetric experiments were conducted at 34-37° C.\nThe precise time course of the baseline RVI was variable, so that the data of some experiments were better fit to an exponential expression, and others to a linear expression (filled circles, FIG. 2C). […] Secondary RVI was inhibited either by blocking the Na^+/H^+ antiport with 10 μM dimethylamiloride, or by omitting CO2/HCO3^− from the external solution.\nInhibitors were added at the same time that isotonicity was restored (t=24 min)."}, "PE cells [3]": {"test_system": "PE cells", "conditions": "applied to PE cells; cited from earlier work"}, "NHE-1": {"test_system": "NHE-1", "conditions": "cited from earlier work"}, "mouse IOP [4]": {"test_system": "mouse IOP", "conditions": "cited from earlier work"}, "PE cells [5]": {"test_system": "PE cells", "assay": "Potency of Na+/H+ antiport inhibitors applied to PE cells", "format": "cell-based", "conditions": "amiloride : EIPA", "description": "Carbonic anhydrase inhibition reduces the rate of production of H^+ and HCO3^−, which in turn must slow the rate of delivery of H^+ and HCO3^− to all cell sites, including the antiports. […] To reach a 10-mM concentration, it was necessary to solubilize the amiloride in 30% DMSO. […] Thus, at a concentration 10 times higher than EIPA's minimal effective concentration, amiloride had no effect, consistent with the known ratio of the potency of these inhibitors (3.9:0.07 μM, or ˜56) when applied to PE cells."}, "[6]": {"conditions": "single drug, topical 10-μL droplet, 100 μM"}, "[7]": {"conditions": "single drug, topical 10-μL droplet, 1 mM"}, "[8]": {"conditions": "1st drug 1 mM topical, vs baseline"}, "[9]": {"conditions": "single drug, topical 10-μL droplet, 3 mM"}}, "data": [{"smiles": "CCCCNc1cc(C(=O)O)cc(S(N)(=O)=O)c1Oc1ccccc1", "note": "[Bumetanide]", "values": [{"measurement": "change in IOP", "setting": "mouse IOP [1]; 10 mM alone, 4 mice", "result": "−1.0±1.1", "unit": "mm Hg"}, {"measurement": "reduction of IOP", "setting": "mouse IOP [1]; 10 mM bumetanide after topical ethylisopropyl-amiloride, N=6", "result": "4.0±0.6", "unit": "mm Hg"}, {"measurement": "ΔIOP (after 1st drug)", "setting": "mouse IOP [1]; 2nd drug 10 mM (36.4 μg) after 1 mM BIIB", "result": "−3.9 ± 0.9", "unit": "mm Hg"}, {"measurement": "ΔIOP (after 1st drug)", "setting": "mouse IOP [1]; 2nd drug 10 mM (36.4 μg) after 1 mM DMA", "result": "−3.8 ± 0.7", "unit": "mm Hg"}, {"measurement": "ΔIOP (after 1st drug)", "setting": "mouse IOP [1]; 2nd drug 10 mM (36.4 μg) after 1 mM EIPA", "result": "−4.0 ± 0.6", "unit": "mm Hg"}, {"measurement": "ΔIOP (after 1st drug)", "setting": "mouse IOP [1]; 2nd drug 10 mM (36.4 μg) after 55.5 mM dorzolamide", "result": "−3.9 ± 1.0", "unit": "mm Hg"}, {"measurement": "effect on IOP", "setting": "mouse IOP [1]; N=8, 10 uM-10 mM concentrations in topical drops", "result": "had no significant effect on IOP"}, {"measurement": "effect on IOP", "setting": "mouse IOP [1]; droplet concentrations of 0.1 to 10 mM (364 ng to 36.4 μg)", "result": "had no significant effect on IOP"}, {"measurement": "ΔIOP", "setting": "mouse IOP [1]; [6]", "result": "−0.8 ± 0.7", "unit": "mm Hg"}, {"measurement": "ΔIOP", "setting": "mouse IOP [1]; [7]", "result": "−0.7 ± 1.6", "unit": "mm Hg"}, {"measurement": "ΔIOP", "setting": "mouse IOP [1]; single drug, topical 10-μL droplet, 10 mM", "result": "−1.2 ± 0.6", "unit": "mm Hg"}, {"measurement": "effect on RVI", "setting": "PE cells [2]; 10 μM, added when isotonicity restored, N=9", "result": "did not inhibit the RVI"}, {"measurement": "effect on RVI", "setting": "PE cells [2]; alone, in the nominal absence of CO2/HCO3−, P<0.01", "result": "substantially inhibited the RVI"}]}, {"smiles": "O=S(=O)(O)c1cc(N=C=S)ccc1C=Cc1ccc(N=C=S)cc1S(=O)(=O)O", "note": "[DIDS, 4,4′-diisothiocyanatostilbene-2,2′-disulfonic acid]", "values": [{"measurement": "effect on RVI", "setting": "PE cells [2]; 500 μM, added when isotonicity restored, N=3", "result": "did not inhibit the RVI"}]}, {"smiles": "CN(C)c1nc(N)c(C(=O)N=C(N)N)nc1Cl", "note": "[DMA, dimethylamiloride]", "values": [{"measurement": "ΔIOP after base (1st drug)", "setting": "mouse IOP [1]; [8]", "result": "−4.0 ± 0.8", "unit": "mm Hg"}, {"measurement": "ΔIOP", "setting": "mouse IOP [1]; [6]", "result": "+0.9 ± 0.9 mm Hg"}, {"measurement": "ΔIOP", "setting": "mouse IOP [1]; [9]", "result": "−5.0 ± 0.7", "unit": "mm Hg"}, {"measurement": "reduction of IOP of the treated eye", "setting": "mouse IOP [1]; single drug, topical, 1 mM", "result": "3.8±0.5", "unit": "mm Hg"}, {"measurement": "lowering of IOP", "setting": "mouse IOP [1]; single drug, topical, 3 mM", "result": "5.0±0.7", "unit": "mm Hg"}, {"measurement": "minimally effective droplet concentration", "setting": "mouse IOP [1]; topical", "result": 1, "unit": "mM"}, {"measurement": "effect on secondary RVI", "setting": "PE cells [2]; 10 μM, 34-37° C.", "result": "inhibited"}]}, {"smiles": "CCN[C@H]1C[C@H](C)S(=O)(=O)c2sc(S(N)(=O)=O)cc21", "note": "[Dorzolamide]", "values": [{"measurement": "ΔIOP after base (1st drug)", "setting": "mouse IOP [1]; 1st drug 55.4 mM (200 μg), series followed by BIIB, n=7", "result": "−3.5 ± 0.9", "unit": "mm Hg"}, {"measurement": "ΔIOP after base (1st drug)", "setting": "mouse IOP [1]; 1st drug 55.5 mM (200 μg), series followed by bumetanide, n=4", "result": "−2.0 ± 0.4", "unit": "mm Hg"}, {"measurement": "ΔIOP", "setting": "mouse IOP [1]; single drug, topical 10-μL droplet, 55.4 mM (200 μg)", "result": "−2.9 ± 0.6", "unit": "mm Hg"}, {"measurement": "ΔIOP", "setting": "mouse IOP [1]; single drug, topical 10-μL droplet, 55.4 mM (200 μg), listed as dorzolamide", "result": "reduces IOP"}]}, {"smiles": "CCN(c1nc(N)c(C(=O)NC(=N)N)nc1Cl)C(C)C", "note": "[EIPA, ethylisopropylamiloride]", "values": [{"measurement": "ΔIOP after base (1st drug)", "setting": "mouse IOP [1]; [8]", "result": "−2.4 ± 0.6", "unit": "mm Hg"}, {"measurement": "ΔIOP", "setting": "mouse IOP [1]; [6]", "result": "+0.8 ± 0.2 mm Hg"}, {"measurement": "ΔIOP", "setting": "mouse IOP [1]; [7]", "result": "−2.6 ± 0.5", "unit": "mm Hg"}, {"measurement": "ΔIOP", "setting": "mouse IOP [1]; [9]", "result": "−4.1 ± 1.0", "unit": "mm Hg"}, {"measurement": "lowering of IOP", "setting": "mouse IOP [1]; single drug, topical, 3 mM", "result": "4.1±1.0", "unit": "mm Hg"}, {"measurement": "minimally effective droplet concentration", "setting": "mouse IOP [1]; topical", "result": 1, "unit": "mM"}, {"measurement": "potency", "setting": "PE cells [3]", "result": 70, "unit": "nM"}, {"measurement": "IC50", "setting": "NHE-1; Scholz et al. 1995", "result": 50, "unit": "nM"}]}, {"smiles": "CC(=O)Nc1nnc(S(N)(=O)=O)s1", "note": "[acetazolamide]", "values": [{"measurement": "lowering of mouse IOP", "setting": "mouse IOP [4]; intraperitoneal", "result": "11.9±1.3", "unit": "mm Hg"}]}, {"smiles": "Nc1ncnc2c1ncn2[C@@H]1O[C@H](CO)[C@@H](O)[C@H]1O", "note": "[adenosine]", "values": [{"measurement": "effect on IOP in the contralateral eye", "setting": "mouse IOP [4]; 100 μM, unilateral topical application", "result": "does not alter"}]}, {"smiles": "N=C(N)NC(=O)c1nc(Cl)c(N)nc1N", "note": "[amiloride]", "values": [{"measurement": "ratio of the potency of these inhibitors", "setting": "PE cells [5]", "result": "~56"}, {"measurement": "ΔIOP", "setting": "mouse IOP [1]; 10 mM in 30% DMSO, after pretreatment with vehicle containing 30% DMSO, n=4", "result": "1.0±0.7", "unit": "mm Hg"}, {"measurement": "ΔIOP", "setting": "mouse IOP [1]; [7]", "result": "no significant effect on mouse IOP"}, {"measurement": "potency", "setting": "PE cells [3]", "result": 3900, "unit": "nM"}, {"measurement": "potency at NHE-1 antiports lower than the amiloride analogues DMA and EIPA", "setting": "NHE-1; Counillon et al., 2000", "result": "1 to 2 orders of magnitude"}]}]}
